Measured values: US20160213739A1, “TREATMENTS FOR DISORDERS USING GUANYLATE CYCLASE C AGONISTS” (Ironwood Pharmaceuticals, Inc., priority 2011, published 2016)
Positions of bridges follow the written chain, without caps; N, C: chain ends. Non-standard residues stand in square brackets, D forms with d. Residues, ends and D or L forms follow the SMILES beside them. pS = N[C@@H](COP(=O)(O)O)C(=O)O

Assays:
[1] = In vitro metabolism in mouse jejunum loop fluid; format: in vitro ADME; conditions: 37° C.; for metabolism in the control reaction: control reaction (1 M Tris-HCl), 120 minute incubation
Method: The purpose of this study was to determine the stability of phosphorylated peptides in mouse jejunal loop fluid. […] The isotopically labeled peptide 2 was synthesized with ^13C, ^15N-labeled alanine and leucine (i.e., with a sequence CCpS[^13C6, ^15N]LCCNP[^13C6, ^15N]ACTGC).
Each peptide was synthesized by American Peptide Company, Inc., and was stored desiccated at −20° C. A 1 mg/mL solution for each of the non-labeled peptides was prepared in 1 M tris (hydroxymethyl) aminomethane hydrochloride (Tris-HCl), pH 8 just prior to conducting the mouse intestinal loop fluid assay. A 500 ng/mL solution of ^13C, ^15N-labeled peptide 2 was prepared in 0.1% formic acid in water and was utilized to dilute the jejunum samples for post-assay LC-MS/MS analysis.
To collect the fluid, mice were fasted overnight with full access to water. They were then anesthetized with isofluorane for surgery and subjected to laparotomy in which the small intestine was exteriorized. Jejunum loops of 3 to 4 cm in length were made with sutures starting at 7 cm from the pyloric sphincter of the stomach. Once the loops were formed, they were injected with 200 μL of phosphate buffered saline (PBS) buffer (10 mM, pH 7.4). The abdominal wall and skin of the animals were then sutured, and the animals were allowed to recover for 30 minutes. Following recovery, the animals were sacrificed, the loops were then excised and the fluid inside was recovered and stored at −80° C. until use.
For each peptide, 254 of the 1 mg/mL peptide stock solution was added to 25 of 1 M Tris-HCl and 25 μL of 10× calf intestinal phosphatase (CIP) buffer containing 500 mM Tris-HCl, 1 M sodium chloride (NaCl), […] (MgCl2), pH 8. The reactions were initiated by adding 175 pit of the mouse jejunum loop fluid or 175 μL of the 1 M Tris-HCl pH8 buffer for the control reactions. The final concentration of each peptide was 100 μg/mL. The reactions were continuously mixed and maintained at 37° C. on a plate shaker. At 0, 2, 5, 10, 20, 30, 60, 90 and 120 minutes after adding the mouse intestinal loop fluid, a 25 μL aliquot was taken and added to 25 μL of 4° C. 12% trichloroacetic acid to stop the reaction. An additional 200 μL of 0.1% formic acid in water was added to these reactions for dilution purposes. These samples were then further diluted by taking 20 μL of each sample and adding it to 480 μL of 0.1% formic acid in water containing 500 ng/mL of the internal standard ^13C, ^15N-labeled peptide 2.
All samples were analyzed using an Applied Biosystems/MDS SCIEX API 4000 triple quadrupole mass spectrometer equipped with a high-performance liquid chromatography (HPLC) system. The mass spectrometer was operated in multiple reaction monitoring (MRM) mode, with resolution set to 1.2 Da.
The LC-MS/MS data were processed using Analyst version 1.4.2 software (Applied Biosystems/MDS SCIEX). The peak area ratio (ratio of analyte peak area to internal standard peak area) was used to calculate the percent remaining of each peptide.

[2] = target: T1, Calf intestinal alkaline phosphatase (CIP) (Bos taurus, UniProt P19111); assay: Alkaline phosphatase reaction on peptide substrates; format: in vitro ADME; conditions: for Dephospho (%) / Remaining (%): Alkaline phosphatase pH 8, 90 minutes at 37° C.
T1 construct: purchased New England BioLabs M0290S
Method: (§1) For the alkaline phosphatase reactions, peptide stocks were prepared at 1 mg/mL in 0.1 M Tris-HCl pH 8, which were stored at −20° C. until assays were conducted. For the acid phosphatase reactions, peptide stocks were prepared at 1 mg/mL in 50 mM sodium phosphate pH 6, which was stored at −20° C. until assays were conducted.
Calf intestinal alkaline phosphatase (CIP) was obtained from New England BioLabs, Ipswich, Mass. Cat # M0290S. The CIP reaction solution was prepared by dilution with buffer (50 mM KCl, 10 mM Tris-HCl pH 8, 1 mM MgCl2, 50% glycerol) to 0.5 units/4. The alkaline phosphatase reaction solutions were assembled in 20 μL quantities containing:
2 μL 10×CIP buffer (1M NaCl, 500 mM Tris-HCl pH 8, 100 mM MgCl2)
2 μL peptide stock (1 mg/mL)
4 μL alkaline phosphatase (0, 0.5 or 2 units)
The reaction solutions were mixed gently and incubated for 90 minutes at 37° C. These reaction solutions were stored at −20° C. until analysis. For analysis, the reaction solutions were diluted from 7.5 μL of CIP treated peptide to 50 μL with 0.1% formic acid in water to a final concentration of 10 μM.
Control reactions were assembled for enzyme activity containing 10 mM p-nitrophenylphosphate in place of peptide. After incubation, the reactions were diluted with 0.1 mL of 100 mM borate buffer pH 9 and read at the absorbance of 405 nm to monitor p-nitrophenol appearance.

[3] = test system: Potato acid phosphatase (PoAP); assay: Acid phosphatase reaction, potato acid phosphatase; format: in vitro ADME; conditions: Potato acid phosphatase pH 5, 90 minutes at 37° C.
Method: as §1
(§2) Potato acid phosphatase (PoAP) was obtained from Sigma, St. Louis, Miss. Cat #P1146 and human prostate acid phosphatase (HuPrAP) was obtained from MP Biochemicals, Solon, Ohio. Cat #153872. The acid phosphatases were dissolved to provide a solution containing 0.5 units AP/4 using 50 mM sodium acetate pH 5, 0.2 mM MgCl2. The acid phosphatase reactions were assembled in 20 μL quantities containing: • 2 μL 10× acid phosphatase buffer (500 mM sodium acetate pH 5, 2 mM MgCl2) • 2 μL peptide stock (1 mg/mL) • 12 μL H2O • 4 μL acid phosphatase (0.5 or 2 units)
(§3) The reaction solutions were mixed gently and incubated for 90 minutes at 37° C. The reaction solutions were stored at −20° C. for later analysis. For analysis, 7.5 μL acid phosphatase reactions were diluted to 50 μL with 0.1% formic acid in water to a final concentration of 10 μM. The control reactions for enzyme activity were assembled and diluted to 10 mM p-nitrophenylphosphate in place of peptide. After incubation, the reactions were diluted with 0.1 mL of 100 mM borate buffer pH 9 and read at the absorbance of 405 nm to monitor p-nitrophenol appearance.

[4] = target: T2, human prostate acid phosphatase (HuPrAP) (Homo sapiens, UniProt P15309); assay: Acid phosphatase reaction, human prostate acid phosphatase; format: in vitro ADME; conditions: Human prostatic acid phosphatase pH 5, 90 minutes at 37° C.
T2 construct: purchased MP Biochemicals 153872
T2 sequence (P15309 33-386): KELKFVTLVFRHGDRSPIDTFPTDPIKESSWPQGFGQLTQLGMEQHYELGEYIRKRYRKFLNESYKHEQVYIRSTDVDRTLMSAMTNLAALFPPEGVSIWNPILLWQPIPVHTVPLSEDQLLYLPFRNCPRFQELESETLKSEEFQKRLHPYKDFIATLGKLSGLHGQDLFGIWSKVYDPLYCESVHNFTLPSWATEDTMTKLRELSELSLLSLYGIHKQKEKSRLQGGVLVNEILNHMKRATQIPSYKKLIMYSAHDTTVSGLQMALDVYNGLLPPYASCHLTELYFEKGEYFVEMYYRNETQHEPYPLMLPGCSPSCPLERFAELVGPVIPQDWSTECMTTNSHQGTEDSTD
Method: as §1, §2, §3

[5] = after oral administration at therapeutic dose levels; cited from earlier work

T1 sequence (P19111 20-506): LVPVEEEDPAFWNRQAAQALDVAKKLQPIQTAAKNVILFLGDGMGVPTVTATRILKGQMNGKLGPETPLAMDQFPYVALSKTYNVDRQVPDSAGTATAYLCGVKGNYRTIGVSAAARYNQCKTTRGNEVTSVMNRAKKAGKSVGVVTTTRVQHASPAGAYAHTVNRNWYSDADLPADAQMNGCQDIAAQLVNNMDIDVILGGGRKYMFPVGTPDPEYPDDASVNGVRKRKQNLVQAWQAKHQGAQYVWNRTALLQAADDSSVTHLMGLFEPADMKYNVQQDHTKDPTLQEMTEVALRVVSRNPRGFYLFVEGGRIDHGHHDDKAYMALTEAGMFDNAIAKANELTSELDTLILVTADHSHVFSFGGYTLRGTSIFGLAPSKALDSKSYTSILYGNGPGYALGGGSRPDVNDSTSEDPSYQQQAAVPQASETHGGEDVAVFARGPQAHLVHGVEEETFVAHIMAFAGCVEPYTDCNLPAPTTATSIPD

Structure (SMILES)	metabolism in the control reaction [1]	degradation in mouse intestinal fluid compared with peptide 2 [1]	Dephospho (%) [2]	Remaining (%) [2]	Dephospho (%) [3]	Dephospho (%) [4]	other results
CC(C)C[C@@H]1NC(=O)[C@H](CO)NC(=O)[C@@H]2CSSC[C@@H]3NC(=O)[C@H](C)NC(=O)[C@@H]4CCCN4C(=O)[C@H](CC(N)=O)NC(=O)[C@H](CSSC[C@H](N)C(=O)N2)NC(=O)[C@H](CSSC[C@@H](C(=O)O)NC(=O)CNC(=O)[C@H]([C@@H](C)O)NC3=O)NC1=O [Dephospho-Peptide 2, CCSLCCNPACTGC] (H-CCSLCCNPACTGC-OH; disulfide 1-6, 2-10, 5-13 (inferred); N-terminus and C-terminus assumed)	not metabolized	degraded faster					
CC(C)C[C@@H]1NC(=O)[C@H](COP(=O)(O)O)NC(=O)[C@@H]2CSSC[C@@H]3NC(=O)[C@H](C)NC(=O)[C@@H]4CCCN4C(=O)[C@H](CC(N)=O)NC(=O)[C@H](CSSC[C@H](N)C(=O)N2)NC(=O)[C@H](CSSC[C@@H](C(=O)N[C@@H](Cc2ccc(O)cc2)C(=O)O)NC(=O)CNC(=O)[C@H]([C@@H](C)O)NC3=O)NC1=O [Peptide 1, CCpSLCCNPACTGCY] (H-CC[pS]LCCNPACTGCY-OH; disulfide 1-6, 2-10, 5-13 (inferred); N-terminus and C-terminus assumed)			100%	0%	22.1%	6.2%	
CC(C)C[C@@H]1NC(=O)[C@H](COP(=O)(O)O)NC(=O)[C@@H]2CSSC[C@@H]3NC(=O)[C@H](C)NC(=O)[C@@H]4CCCN4C(=O)[C@H](CC(N)=O)NC(=O)[C@H](CSSC[C@H](N)C(=O)N2)NC(=O)[C@H](CSSC[C@@H](C(=O)O)NC(=O)CNC(=O)[C@H]([C@@H](C)O)NC3=O)NC1=O [Peptide 2, CCpSLCCNPACTGC] (H-CC[pS]LCCNPACTGC-OH; disulfide 1-6, 2-10, 5-13 (inferred); N-terminus and C-terminus assumed)	not metabolized		100%			4.1%	metabolite formed ([1]; mouse jejunum fluid, increased for the first 20 minutes then slow decrease): dephospho-peptide 2
CC(C)C[C@@H]1NC(=O)[C@H](CCC(=O)O)NC(=O)[C@@H]2CSSC[C@@H]3NC(=O)[C@H](C)NC(=O)[C@@H]4CCCN4C(=O)[C@H](CC(N)=O)NC(=O)[C@H](CSSC[C@H](N)C(=O)N2)NC(=O)[C@H](CSSC[C@@H](C(=O)N[C@@H](Cc2ccc(O)cc2)C(=O)O)NC(=O)CNC(=O)[C@H]([C@@H](C)O)NC3=O)NC1=O [Peptide 3, CCELCCNPACTGCY] (H-CCELCCNPACTGCY-OH; disulfide 1-6, 2-10, 5-13 (inferred); N-terminus and C-terminus assumed)	not metabolized	degraded faster					Effect of CIP treatment on the peptide (LC-MS) ([2]; with and without calf intestinal alkaline phosphatase, data not shown): not affected; peptide detected after 90 minutes ([1]; mouse jejunum fluid, 100 μg/mL peptide): not detected
C[C@@H]1NC(=O)[C@@H]2CCCN2C(=O)[C@H](CC(N)=O)NC(=O)[C@@H]2CSSC[C@H](N)C(=O)N[C@H]3CSSC[C@H](NC1=O)C(=O)N[C@@H]([C@@H](C)O)C(=O)NCC(=O)N[C@H](C(=O)N[C@@H](Cc1ccc(O)cc1)C(=O)O)CSSC[C@H](NC(=O)[C@H](Cc1ccc(O)cc1)NC(=O)[C@H](CCC(=O)O)NC3=O)C(=O)N2 [linaclotide, Linaclotide] (H-CCEYCCNPACTGCY-OH; disulfide 1-6, 2-10, 5-13)							levels seen systemically [5]: no detectable levels
O=[N+]([O-])c1ccc(OP(=O)(O)O)cc1 [p-nitrophenylphosphate]			100%	0%	100%	100%	Remaining (%) [3]: 0%; Remaining (%) [4]: 0%
